From the supplement of paper PMC10307832

Columns and labels:
Assay in all cases: relative viability (nuclei count vs DMSO), 5 days (fraction); higher = more cells survive
[1] = compound: C1=CC=C(C(=C1)C2=CC=C(C=C2)C3=CSC4=C3C(=C(C(=O)N4)C#N)O)O
How it was run: (§1)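 Lung cancer cell lines in 1536-well plates were kept overnight at 37 °C, then pinned with five library-drug doses (not always all listed) spaced by √10 on vehicle-anchored plates. After 5 days without medium change, cells were fixed, permeabilised and Hoechst-stained in one step, imaged at 4×, and nuclei were counted with MetaXpress. Viability is treated-well nuclei divided by vehicle-well nuclei, taken as the median over plates. Plates passed only with control CV below 25% and at least one doubling.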

Ricolinostat = compound: O=C(CCCCCCNC(=O)c1cnc(N(c2ccccc2)c2ccccc2)nc1)NO [Ricolinostat]
How it was run: as §1

TGX 221 = compound: CC1=CN2C(=O)C=C(N=C2C(=C1)C(C)NC3=CC=CC=C3)N4CCOCC4 [TGX 221]
How it was run: as §1

TGX 221 + Dasatinib = compound: CC1=CN2C(=O)C=C(N=C2C(=C1)C(C)NC3=CC=CC=C3)N4CCOCC4 [TGX 221] + Cc1nc(Nc2ncc(C(=O)Nc3c(C)cccc3Cl)s2)cc(N2CCN(CCO)CC2)n1 [Dasatinib] (partner 0.075 µM)
How it was run: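 Nuclei were stained with Hoechst during a one-step fixation (final 0.05% Triton X-100, 1% formaldehyde, 1 ug/ml Hoechst) carried out 5 days after dosing, then counted on 4× images. The cells, lung cancer lines in 1536-well plates, had been dosed by pin tool the day after seeding with one drug alone or a fixed anchor-drug dose plus five library-drug doses (not always all listed) in √10 steps. Relative viability is the nuclei count in treated wells divided by that in vehicle wells, and each value is the median of duplicate plates.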

Cell Line | relative viability ([1]; 0.08 µM) | relative viability ([1]; 0.253 µM) | relative viability ([1]; 0.8 µM) | relative viability ([1]; 2.53 µM) | relative viability ([1]; 8 µM) | relative viability (Ricolinostat; 0.08 µM) | relative viability (Ricolinostat; 0.253 µM) | relative viability (Ricolinostat; 0.8 µM) | relative viability (Ricolinostat; 2.53 µM) | relative viability (TGX 221; 0.08 µM) | relative viability (TGX 221; 0.253 µM) | relative viability (TGX 221; 0.8 µM) | relative viability (TGX 221; 2.53 µM) | relative viability (TGX 221; 8 µM) | relative viability (TGX 221 + Dasatinib; first compound 0.08 µM) | relative viability (TGX 221 + Dasatinib; first compound 0.253 µM) | relative viability (TGX 221 + Dasatinib; first compound 0.8 µM) | relative viability (TGX 221 + Dasatinib; first compound 2.53 µM) | relative viability (TGX 221 + Dasatinib; first compound 8 µM)
LCLC-97TM1 | 0.895 | 1.34 | 1.02 | 1.08 | 1.03 | 0.809 | 1.06 | 0.997 | 0.855 | 0.97 | 0.76 | 1.02 | 0.863 | 0.924 | 0.902 | 0.73 | 0.779 | 0.742 | 0.791
NCI-H1734 | 0.833 | 0.992 | 0.971 | 1.01 | 0.753 | 0.81 | 1.03 | 0.935 | 0.894 | 0.91 | 0.892 | 1 | 0.934 | 0.9 | 0.472 | 0.393 | 0.433 | 0.444 | 0.391
NCI-H661 | 1.11 | 1.03 | 1.03 | 0.97 | 0.834 | 0.836 | 0.981 | 1.02 | 0.803 | 1.02 | 1.02 | 0.971 | 0.999 | 0.846 | 0.945 | 0.831 | 0.803 | 0.876 | 0.828
SK-LU-1 | 1.11 | 0.96 | 0.994 | 1.16 | 0.81 | 0.939 | 0.981 | 0.995 | 0.72 | 0.954 | 0.964 | 0.963 | 0.932 | 0.876 | 0.203 | 0.181 | 0.165 | 0.129 | 0.128
LC-2-ad | 0.824 | 1.05 | 0.898 | 1.04 | 0.906 | 0.866 | 0.964 | 0.946 | 0.683 | 0.962 | 1.01 | 1.01 | 1.02 | 0.92 | 0.459 | 0.51 | 0.66 | 0.55 | 0.505
NCI-H1355 | 0.839 | 1.13 | 1.02 | 1.02 | 0.955 | 0.855 | 0.97 | 0.948 | 0.893 | 0.979 | 0.948 | 0.972 | 0.864 | 0.902 | 0.688 | 0.688 | 0.721 | 0.688 | 0.632
NCI-H1793 | 0.786 | 1.17 | 0.9 | 0.834 | 0.945 | – | 0.924 | 0.905 | 0.898 | 0.858 | 0.628 | 0.748 | 0.574 | 0.668 | 0.344 | 0.289 | 0.363 | 0.48 | 0.381
H3255 | 0.995 | 1.09 | 0.882 | 1.01 | 0.858 | 0.809 | 0.911 | 0.838 | 0.783 | 0.946 | 0.917 | 0.93 | 0.872 | 1.01 | 0.257 | 0.417 | 0.355 | 0.307 | 0.342
NCI-H2342 | 0.971 | 1.15 | 0.926 | 0.953 | 0.795 | 0.768 | 0.912 | 0.916 | 1.05 | 0.912 | 0.997 | 0.947 | 1.01 | 0.945 | 0.286 | 0.339 | 0.314 | 0.292 | 0.299
NCI-H838 | 0.893 | 1.06 | 0.98 | 0.882 | 0.824 | 0.822 | 1.05 | 0.981 | 0.95 | 0.946 | 0.833 | 0.886 | 0.83 | 0.761 | 0.305 | 0.258 | 0.273 | 0.234 | 0.223
NCI-H727 | 1.02 | 0.92 | 0.987 | 0.808 | 0.842 | 0.763 | 1.11 | 1 | 0.81 | 0.885 | 0.887 | 0.948 | 0.898 | 0.97 | 0.287 | 0.436 | 0.412 | 0.409 | 0.439
UMC-11 | 0.793 | 0.892 | 1.07 | 0.921 | 0.813 | 0.889 | 0.945 | 0.866 | 0.464 | 0.957 | 0.91 | 1 | 0.976 | 1.08 | 0.481 | 0.437 | 0.436 | 0.535 | 0.492
CAL-12T | 0.894 | 1.24 | 0.946 | 0.929 | 0.747 | 0.835 | 0.953 | 0.953 | 1.01 | 0.963 | 0.936 | 0.992 | 0.917 | 1.05 | 0.365 | 0.34 | 0.383 | 0.31 | 0.373
NCI-H1755 | 1.06 | 1.08 | 0.991 | 1.05 | 0.923 | 0.885 | 0.961 | 0.978 | 1.03 | 0.954 | 0.971 | 0.972 | 0.915 | 0.828 | 0.406 | 0.371 | 0.366 | 0.317 | 0.317
NCI-H1651 | 0.997 | 0.973 | 1.07 | 1 | 0.821 | 0.913 | 0.936 | 0.971 | 0.966 | 0.923 | 0.891 | 0.953 | 0.956 | 0.879 | 0.505 | 0.371 | 0.464 | 0.345 | 0.362
NCI-H2170 | 1.01 | 0.961 | 0.953 | 0.995 | 0.804 | 0.904 | 0.939 | 1.01 | 1.04 | 0.959 | 0.958 | 0.989 | 0.93 | 0.993 | 0.542 | 0.48 | 0.527 | 0.519 | 0.507
NCI-H1915 | 0.967 | 1.06 | 0.892 | 1.05 | 0.869 | 0.899 | 0.968 | 0.976 | 0.862 | 0.937 | 0.985 | 0.993 | 0.871 | 0.994 | 0.257 | 0.303 | 0.304 | 0.302 | 0.314
